Assay results as given in patent US10471059B2, “Compositions and methods of using tyrosine kinase inhibitors” (YALE UNIVERSITY, priority 2015, dated 2019).
“Also recorded” adds a separate entry of the source.

Legend:
[1] = tested on: Ptpn11^D61G/+ X WT breeder; experiment: Progeny from prenatal dasatinib treated Ptpn11D61G/+ X WT breeder
Method: (§1) Vehicle-injected mice served as control.
Dasatinib was administered into pregnant mothers and amelioration of cardiac defects in NS mice was assessed. Dasatinib was administered at 0.1, 0.5 or 1.0 mg/kg daily interperitoneally into wild type pregnant mice intercrossed with NS mice, beginning at embryonic day 7 until postnatal day 9 (in nursing females). After postnatal day 10 (P10), dasatinib injections resumed directly into individual pups daily until 8-weeks (P56) after birth (FIG. 14a).

Ptpn11^D61G/+ mice = experiment: Heart tissue immunoblot for SERCA2A, Troponin I, Troponin T; assay type: in vivo; conditions: postnatal dasatinib; NS mice
Excerpt: Representative traces of cardiomyocyte dynamics for calcium transient traces (top) and their corresponding sarcomere leng shortening traces (bottom). FIG. 16b is a graph showing a summary of the data of relative calcium release (Rmag Ca^2+). FIG. 16c is a graph showing the fraction of sarcomere shortening (n=111˜162 cells from 3 mice for each group). FIG. 16d is an image showing heart tissue immunoblotted with anti-SERCA2A, Troponin I (tTnI), Troponin T (tTnT) and Tubulin antibodies. […] FIG. 16e is a graph showing SERCA2A expression. FIG. 16f is a graph showing Troponin I expression. FIG. 16g is a graph showing Troponin T. Expression was statistically assessed after normalization with tubulin (n=6 for each group).
Immunoprecipitation and Immunoblotting—Cells or heart tissue were lysed on ice in lysis buffer (25 mM Tris-HCl, pH 7.4, 136 mM NaCl, 1 mM CaCl2, 1 mM MgCl2, 1% Nonidet P-40, 1 mM Na3VO4, 10 mM NaF, 1 mM benzamidine, 1 mM PMSF, 1 μg/ml pepstatin A, 5 μg/ml aprotinin, and 5 μg/ml leupeptin). Cell or tissue lysates were incubated at 4° C. for 30 min and clarified by centrifugation at 14,000 rpm at 4° C. for 10 min. Protein concentration was determined using the BCA reagent according to the manufacturer's instructions (Pierce). For immunoprecipitations, 500 μg of lysate was incubated with 1 μg of indicated antibodies at 4° C. for overnight. […]

[2] = tested on: cardiomyocytes isolated from the heart of WT and Ptpn11^D61G/+ mice; experiment: Ca2+ excitation-contraction coupling of cardiomyocytes isolated from treated mice; assay type: in vivo
Method: as §1
Enzymatic Digestion of Cardiac Tissue for Single-Cell Analysis—Cardiomyocytes from 8 week old mice were isolated by a Langendorff procedure, modified from Xianghua Xu, et al. J Vis Exp. 2009; (28):1308. In brief, the hearts were quickly excised and cannulated to a Langendorff apparatus where they were perfused with 37° C. Ca^2+-free perfusion buffer (in 25 mM HEPES, 118 mM NaCl, 4.8 mM KCl, 2.0 mM KH2PO4, 2.55 mM MgSO4, 10 mM BDM and 10 mM Glucose). To digest the tissue, the heart was perfused with buffer containing 0.5 mg/mL Liberase TH (Roche Applied Science, Penzberg, Germany). After ˜10 min, the heart was removed from the Langendorff apparatus and the right ventricle and atria removed. The left ventricle was isolated, cut into small pieces and digested further at 37° C. digestion solution with mechanical agitation for 5-10 min, and then gently triturated to liberate individual cells. The remaining tissue chunks were transferred to fresh digestion buffer and the process was repeated up to 6 times, or until all tissue was digested. Cells were removed from collagenase by gentle centrifugation and resuspended in several washing steps of buffer containing FBS and gradually reintroduced to calcium (0.05-1.1 mM) through step-wise additions of concentrated CaCl2 solution. Cells were allowed to rest for at least 1 h before imaging.
Cardiomyocyte Functional Characterization—Cardiomyocytes were imaged in Tyrodes solution ([…] NaCl: 140, KCl: 5.4, CaCl2:1.8, MgCl2:1, HEPES: 25 mM, glucose: 10 mM). Cell pellets were loaded for 15 minutes in the dark with Tyrodes supplemented with 2.5 μM Fura-2 AM complimented with pluronic acid (20% w/v), for calcium fluorescence imaging. After 15 minutes of loading, the cells were resuspended in fresh Tyrodes solution and allowed to settle until imaging. Cardiomyocyte Ca^2+ transients and unloaded shortening contractions were measured using an inverted microscope (Nikon Eclipse, Chiyoda, Tokyo) equipped with a temperature controlled perfusion bath (Cell MicroControls, Norfolk, Va.) under constant perfusion of 37° C. Tyrodes solution. Cells were field-stimulated at 1 Hz. Contractile events were imaged in real-time using a sarcomere length camera system (HVSL, Aurora Scientific, Ontario, Canada). Only rod-shaped cells with well-defined sarcomere striations that contracted when stimulated were selected for measurement. Sarcomere length was measured and recorded for ten consecutive beats and subsequently averaged across beats to produce a single waveform. Calcium transient measurements were recorded simultaneously using alternating excitation wavelengths of 340 and 380 nm generated at an overall rate of 100 Hz by a RatioMaster fluorescence system (PTI, Birmingham, N.J.). Fluorescence emission was filtered at a center wavelength of 510 nm and quantified to obtain responses to the alternating excitation wavelengths (F340 and F380, respectively). Ca^2+ transients were reported as the interpolated ratio of the two fluorescence intensities (F340/F380) at each time point. Data were recorded using a DAP5216a data acquisition system (Microstar Laboratories, Bellevue, Wash.) and processed using custom software written in MATLAB (MathWorks, Natick, Mass.). Peak sarcomere length shortening (Peak SL shortening), time to peak shortening (TTP), time to 50% re-lengthening (RT50), the magnitude of the calcium transient (Ca^2+ Rmag:Max F340/F380−Min F340/F380) and the rate of calcium decay, Tau (TauCa2+) were computed.

[3] = cited from earlier work
[4] = tested on: WT and Ptpn11^D61G/+ mice; experiment: Liver damage (H&E histology, serum ALT) after postnatal dasatinib; conditions: postnatal 0.1 mg/kg/day; wild type or NS mice; monohydrate
Excerpt: All data present mean±SEM. *, p<0.05; ***, p<0.001. (n=7˜10 for each group; Two-way ANOVA test).
Histology—Heart, liver and spleen were isolated from vehicle- or dasatinib-treated wild type and NS mice. Tissues were fixed in 4% paraformaldehyde in phosphate-buffer saline (PBS), processed for paraffin sections and stained with hematoxylin and eosin (H&E) or Masson's Trichrome. Tissue images were obtained under bright field microscopy (Olympus BX51, Yale Liver Center).

[5] = postnatal dasatinib, Ptpn11D61G/+ mice, P56, n = 162 cells, n = 3 mice, Mean ± SEM
[6] = postnatal dasatinib, WT mice, P56, n = 111 cells, n = 3 mice, Mean ± SEM

Cc1nc(Nc2ncc(C(=O)Nc3c(C)cccc3Cl)s2)cc(N2CCN(CCO)CC2)n1.O [Dasatinib, N-(2-chloro-6-methylphenyl)-2-[[6-[4-(2-hydroxyethyl)-1-piperazinyl]-2-methyl-4-pyrimidinyl]amino]-5-thiazole carboxamide monohydrate]
adverse effects ([1]; mouse, in vivo, ip, 0.1 mg/kg): no observable adverse effects
Dead pups ([1]; prenatal dasatinib 0.1 mg/kg, number of pups): 4
embryonic lethality ([1]; prenatal treatment at 0.5 and 1.0 mg/kg/per day i.p.): embryonic lethality
SERCA2A protein expression in cardiac tissue (Ptpn11^D61G/+ mice): completely normalized
TnT and TnI expression levels in heart (Ptpn11^D61G/+ mice): returned to those equivalent to vehicle-treated wild type mice
Ca2+ signaling during excitation-contraction coupling ([2]; cardiomyocytes from dasatinib treated Ptpn11D61G/+ mice): normal
difference in relative calcium release (Rmag Ca2+) between NS and wild type cardiomyocytes ([2]; postnatal dasatinib, NS mice): substantially ameliorated
differences in fractional shortening of sarcomeres between NS and wild type cardiomyocytes ([2]; postnatal dasatinib, NS mice): completely restored
Ca^2+ TTP (Time to peak, F340/380) [2, 5]: 43.22 ± 0.90 ms
Diastolic Ca^2+ (MinF340/380) [2, 5]: 0.98 ± 0.01
Peak Shortening [2, 5]: 6.59 ± 0.18 %
Rmag Ca^2+ (ΔF340/380) [2, 5]: 0.14 ± 0.01
Shortening RT50 (Time from peak tension to 50% relaxation) [2, 5]: 37.02 ± 0.62 ms
Shortening RT90 (Time from peak tension to 90% relaxation) [2, 5]: 99.24 ± 3.23 ms
Shortening TTP (Time to peak) [2, 5]: 69.32 ± 0.79 ms
Systolic Ca^2+ (Max F340/380) [2, 5]: 1.12 ± 0.01
Tau Ca^2+ [2, 5]: 116.52 ± 2.36 ms
Ca^2+ TTP (Time to peak, F340/380) [2, 6]: 42.75 ± 1.21 ms
Diastolic Ca^2+ (MinF340/380) [2, 6]: 0.94 ± 0.01
Peak Shortening [2, 6]: 6.04 ± 0.23 %
Rmag Ca^2+ (ΔF340/380) [2, 6]: 0.11 ± 0.01
Shortening RT50 (Time from peak tension to 50% relaxation) [2, 6]: 41.11 ± 0.96 ms
Shortening TTP (Time to peak) [2, 6]: 71.52 ± 0.90 ms
Systolic Ca^2+ (Max F340/380) [2, 6]: 1.06 ± 0.01
Tau Ca^2+ [2, 6]: 105.85 ± 2.35 ms
dose of therapeutic effects in humans ([3]; humans): ~2 mg/kg
equivalent dose in mice of the human therapeutic dose ([3]; mice equivalent): ~24 mg/kg
liver damage [4]: no evidence of liver damage; also recorded: does not induce liver damage
